In patent US4820694A, “Modifications of 3-O-demethylmycinose in macrocin and lactenocin” (priority 1986, dated 1989):
In brackets after ≈: the same amount, converted by molar mass. Where two headings read alike, the source gives them in different places.

What was measured:
[1] = tested on: Pasteurella multocida 17E; test: broth-dilution microtiter MIC test; type: cell-based; settings: Pasteurella multocida, 17E
Experimental: (§1) The MIC's in Table III were determined by standard agar-dilution assays. The MIC's in Table IV were obtained using conventional brothdilution microtiter tests.

[2] = tested on: Pasteurella multocida 40G; test: broth-dilution microtiter MIC test; type: cell-based; settings: Pasteurella multocida, 40G
Experimental: as §1

[3] = tested on: Staphylococcus aureus 19C; test: broth-dilution microtiter MIC test; type: cell-based; settings: Staphylococcus aureus, 19C
Experimental: as §1

[4] = tested on: Pasteurella hemolytica 23C; test: broth-dilution microtiter MIC test; type: cell-based; settings: Pasteurella, 23C
Experimental: as §1

[5] = tested on: Bordetella bronchiseptica; test: broth-dilution microtiter MIC test; type: cell-based; settings: Bordetella bronchiseptica
Experimental: as §1

Mycoplasma hyorhinis 29E = test: broth-dilution microtiter MIC test; type: cell-based; settings: Mycoplasma, 29E
Experimental: as §1

[6] = tested on: Mycoplasma gallisepticum 15E; test: broth-dilution microtiter MIC test; type: cell-based; settings: Mycoplasmoides gallisepticum, 15E
Experimental: as §1

Mycoplasma synoviae 40A = test: broth-dilution microtiter MIC test; type: cell-based; settings: Mycoplasmopsis synoviae, 40A
Experimental: as §1

Streptococcus sp. 19F = test: broth-dilution microtiter MIC test; type: cell-based; settings: Streptococcus, SP.19F
Experimental: as §1

[7] = tested on: Mycoplasma gallisepticum 36H; test: broth-dilution microtiter MIC test; type: cell-based; settings: Mycoplasmoides gallisepticum, 36H
Experimental: as §1

[8] = tested on: Pasteurella multocida 68C; test: broth-dilution microtiter MIC test; type: cell-based; settings: Pasteurella multocida, 68C
Experimental: as §1

[9] = tested on: Pasteurella hemolytica 22C; test: broth-dilution microtiter MIC test; type: cell-based; settings: Pasteurella, 22C
Experimental: as §1

[10] = tested on: Pasteurella multocida 22A; test: broth-dilution microtiter MIC test; type: cell-based; settings: Pasteurella multocida, 22A
Experimental: as §1

[11] = tested on: Pasteurella multocida 60A; test: broth-dilution microtiter MIC test; type: cell-based; settings: Pasteurella multocida, 60A
Experimental: as §1

[12] = tested on: Pasteurella hemolytica 41D; test: broth-dilution microtiter MIC test; type: cell-based; settings: Pasteurella, 41D
Experimental: as §1

[13] = tested on: Mycoplasma gallisepticum 29C; test: broth-dilution microtiter MIC test; type: cell-based; settings: Mycoplasmoides gallisepticum, 29C
Experimental: as §1

[14] = tested on: Streptococcus pyogenes C203; test: protection of mice experimentally infected with S. pyogenes C203; type: in vivo; settings: mice, mg/kg × 2, doses given 1 and 4 hours postinfection, read-out: ED50
Experimental: The formula 1 compounds have shown in vivo antimicrobial activity against experimentally-induced infections in laboratory animals. When two doses of test compound were administered to mice experimentally infected with S. pyrogenes C203, the activity observed was measured as an ED50 value [effective dose in mg/kg to protect 50% of the test animals: see Warren Wick, et al., J. Bacteriol. 81, 233-235 (1961)].
^a mg/kg × 2; doses given 1 and 4 hours postinfection

[15] = tested on: Streptococcus pneumoniae Park I; test: microbe, parasite or virus in culture; type: cell-based; settings: Streptococcus pneumoniae
Experimental: as §1

[16] = tested on: Staphylococcus aureus S13E; test: microbe, parasite or virus in culture; type: cell-based; settings: Staphylococcus aureus, S13E
Experimental: as §1

[17] = tested on: Staphylococcus epidermidis EPI1; test: standard agar-dilution MIC assay; type: cell-based; settings: Staphylococcus epidermidis, EPI1
Experimental: as §1

[18] = tested on: Staphylococcus epidermidis EP12; test: standard agar-dilution MIC assay; type: cell-based
Experimental: as §1

[19] = tested on: Streptococcus Group D 9960; test: standard agar-dilution MIC assay; type: cell-based; settings: GROUPD9960, read-out: MIC
Experimental: as §1

[20] = tested on: Streptococcus Group D X66; test: standard agar-dilution MIC assay; type: cell-based; settings: read-out: MIC
Experimental: as §1

[21] = tested on: Pseudomonas aeruginosa X239; test: standard agar-dilution MIC assay; type: cell-based; settings: Pseudomonas aeruginosa, X239
Experimental: as §1

[22] = tested on: Klebsiella pneumoniae X68; test: standard agar-dilution MIC assay; type: cell-based; settings: Klebsiella pneumoniae, X68
Experimental: as §1

[23] = tested on: Staphylococcus aureus X400; test: standard agar-dilution MIC assay; type: cell-based; settings: Staphylococcus aureus, X400
Experimental: as §1

[24] = tested on: Streptococcus pyogenes C203; test: standard agar-dilution MIC assay; type: cell-based; settings: Streptococcus pyogenes, C203
Experimental: as §1

Escherichia coli EC14 = test: standard agar-dilution MIC assay; type: cell-based
Experimental: as §1

[25] = tested on: Staphylococcus aureus X1.1; test: standard agar-dilution MIC assay; type: cell-based; settings: Staphylococcus aureus, X1.1
Experimental: as §1

[26] = tested on: Staphylococcus aureus V41; test: standard agar-dilution MIC assay; type: cell-based; settings: Staphylococcus aureus, V41
Experimental: as §1

[27] = tested on: Haemophilus influenzae C.L.; test: standard agar-dilution MIC assay; type: cell-based; settings: Haemophilus influenzae
Experimental: as §1

[28] = tested on: Haemophilus influenzae 76; test: standard agar-dilution MIC assay; type: cell-based; settings: Haemophilus influenzae, 76
Experimental: as §1

[29] = broth-dilution microtiter, read-out: MIC
[30] = broth-dilution microtiter, Avian isolate, read-out: MIC

SMILES | MIC [1] | MIC [2, 29] | MIC [3] | MIC [4, 29] | MIC (Mycoplasma hyorhinis 29E) | MIC [6] | MIC (Mycoplasma synoviae 40A) | MIC (Streptococcus sp. 19F) | MIC [7] | MIC [13] | MIC [15] | MIC [16] | MIC [17] | MIC [18] | MIC [19] | MIC [20] | MIC [23] | MIC [24] | MIC [25] | MIC [26] | also measured
CCC1OC(=O)CC(O)C(C)C(OC2OC(C)C(OC3CC(C)(O)C(O)C(C)O3)C(N(C)C)C2OC(C)=O)C(CC=O)CC(C)C(=O)C=CC(C)=CC1COC1OC(C)C(OC(=O)COc2ccccc2)C(O)C1OC (stereo not drawn) [Compound 13, 2'-O-Acetyl-4'"-O-phenoxyacetyl-macrocin] | 50 µg/mL (≈ 46.4 µM) | > 50 µg/mL | 3.12 µg/mL (≈ 2.89 µM) | > 50 µg/mL | 3.12 µg/mL (≈ 2.89 µM) | 12.5 µg/mL (≈ 11.6 µM) | 0.39 µg/mL (≈ 0.362 µM) | 1.56 µg/mL (≈ 1.45 µM) | 12.5 µg/mL (≈ 11.6 µM) | 0.39 µg/mL (≈ 0.362 µM) | 0.25 µg/mL (≈ 0.232 µM) | 2 µg/mL (≈ 1.85 µM) | 1 µg/mL (≈ 0.927 µM) | 2 µg/mL (≈ 1.85 µM) | 1 µg/mL (≈ 0.927 µM) | 1 µg/mL (≈ 0.927 µM) | 2 µg/mL (≈ 1.85 µM) | 1 µg/mL (≈ 0.927 µM) | 1 µg/mL (≈ 0.927 µM) | 1 µg/mL (≈ 0.927 µM) | MIC [5, 29]: > 50 µg/mL; MIC [8]: 50 µg/mL (≈ 46.4 µM); MIC [9, 29]: > 50 µg/mL; MIC [10, 29]: > 50 µg/mL; MIC [11, 30]: > 50 µg/mL; MIC [12, 29]: > 50 µg/mL; ED50 ([14]; C203, Oral): > 100 mg/kg; ED50 ([14]; C203, sc, Subcutaneous): 7.2 mg/kg; MIC ([21]; agar-dilution, read-out: MIC): > 128 µg/mL; MIC ([22]; agar-dilution, read-out: MIC): > 128 µg/mL; MIC (Escherichia coli EC14; agar-dilution, read-out: MIC): > 128 µg/mL
CCC1OC(=O)CC(O)C(C)C(OC2OC(C)C(OC3CC(C)(O)C(O)C(C)O3)C(N(C)C)C2OC(C)=O)C(CC=O)CC(C)C(=O)C=CC(C)=CC1COC1OC(C)C(OC(=O)Cc2ccccc2)C(OC(=O)Cc2ccccc2)C1OC (stereo not drawn) [Compound 11, 2'-O-Acetyl-3'",4'"-di-O-phenylacetylmacrocin] | > 50 µg/mL | – | 50 µg/mL (≈ 42.4 µM) | – | 12.5 µg/mL (≈ 10.6 µM) | 25 µg/mL (≈ 21.2 µM) | 12.5 µg/mL (≈ 10.6 µM) | 3.12 µg/mL (≈ 2.64 µM) | 50 µg/mL (≈ 42.4 µM) | 3.12 µg/mL (≈ 2.64 µM) | 1 µg/mL (≈ 0.847 µM) | 32 µg/mL (≈ 27.1 µM) | 32 µg/mL (≈ 27.1 µM) | 32 µg/mL (≈ 27.1 µM) | 16 µg/mL (≈ 13.6 µM) | 32 µg/mL (≈ 27.1 µM) | 64 µg/mL (≈ 54.2 µM) | 4 µg/mL (≈ 3.39 µM) | 16 µg/mL (≈ 13.6 µM) | 16 µg/mL (≈ 13.6 µM) | MIC [2]: > 50 µg/mL; MIC [4]: > 50 µg/mL; MIC [5]: > 50 µg/mL; MIC [8]: > 50 µg/mL; MIC [9]: > 50 µg/mL; MIC [10]: > 50 µg/mL; MIC [11]: > 50 µg/mL; MIC [12]: > 50 µg/mL; MIC [21]: > 128 µg/mL; MIC [22]: > 128 µg/mL; MIC [27]: > 128 µg/mL; MIC (Escherichia coli EC14): > 128 µg/mL; MIC [28]: > 128 µg/mL
CCC1OC(=O)CC(O)C(C)C(OC2OC(C)C(OC3CC(C)(O)C(O)C(C)O3)C(N(C)C)C2OC(C)=O)C(CC=O)CC(C)C(=O)C=CC(C)=CC1COC1OC(C)C(OC(C)=O)C(OC(=O)COc2ccccc2)C1OC (stereo not drawn) [Compound 19, 2',4'"-Di-O-acetyl-3'"-O-phenoxyacetyl-macrocin] | – | > 50 µg/mL | 6.25 µg/mL (≈ 5.58 µM) | > 50 µg/mL | 3.12 µg/mL (≈ 2.78 µM) | 25 µg/mL (≈ 22.3 µM) | 0.78 µg/mL (≈ 0.696 µM) | 1.56 µg/mL (≈ 1.39 µM) | 50 µg/mL (≈ 44.6 µM) | 0.78 µg/mL (≈ 0.696 µM) | 0.25 µg/mL (≈ 0.223 µM) | 1 µg/mL (≈ 0.893 µM) | 1 µg/mL (≈ 0.893 µM) | 1 µg/mL (≈ 0.893 µM) | 2 µg/mL (≈ 1.79 µM) | 2 µg/mL (≈ 1.79 µM) | 2 µg/mL (≈ 1.79 µM) | 0.5 µg/mL (≈ 0.446 µM) | 1 µg/mL (≈ 0.893 µM) | 1 µg/mL (≈ 0.893 µM) | MIC ([1]; broth-dilution microtiter, Bovine isolate, read-out: MIC): > 50 µg/mL; MIC [5, 29]: > 50 µg/mL; MIC [8, 29]: > 50 µg/mL; MIC [9, 29]: > 50 µg/mL; MIC [10, 29]: > 50 µg/mL; MIC [11, 30]: > 50 µg/mL; MIC [12, 29]: > 50 µg/mL; MIC ([21]; agar-dilution, read-out: MIC): > 128 µg/mL; MIC ([22]; agar-dilution, read-out: MIC): > 128 µg/mL; MIC ([27]; agar-dilution, Ampicillin-sensitive strain, read-out: MIC): > 128 µg/mL; MIC (Escherichia coli EC14; agar-dilution, read-out: MIC): > 128 µg/mL; MIC ([28]; agar-dilution, Ampicillin-resistant strain, read-out: MIC): > 128 µg/mL
